Calls of active or inactive are those of the source.
Assays:
[1] = target: Large T antigen (Simian virus 40, UniProt P03070); format: functional, Betapolyomavirus macacae;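 also: Confirmatory-stage PubChem screen for compounds that inhibit SV40 T antigen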
[2] = target: T1, Cytochrome P450 1A2 (Homo sapiens, UniProt P05177);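 also: PubChem cytochrome P450 panel assay, CYP1A2 panel member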
T1 sequence (P05177 whole entry): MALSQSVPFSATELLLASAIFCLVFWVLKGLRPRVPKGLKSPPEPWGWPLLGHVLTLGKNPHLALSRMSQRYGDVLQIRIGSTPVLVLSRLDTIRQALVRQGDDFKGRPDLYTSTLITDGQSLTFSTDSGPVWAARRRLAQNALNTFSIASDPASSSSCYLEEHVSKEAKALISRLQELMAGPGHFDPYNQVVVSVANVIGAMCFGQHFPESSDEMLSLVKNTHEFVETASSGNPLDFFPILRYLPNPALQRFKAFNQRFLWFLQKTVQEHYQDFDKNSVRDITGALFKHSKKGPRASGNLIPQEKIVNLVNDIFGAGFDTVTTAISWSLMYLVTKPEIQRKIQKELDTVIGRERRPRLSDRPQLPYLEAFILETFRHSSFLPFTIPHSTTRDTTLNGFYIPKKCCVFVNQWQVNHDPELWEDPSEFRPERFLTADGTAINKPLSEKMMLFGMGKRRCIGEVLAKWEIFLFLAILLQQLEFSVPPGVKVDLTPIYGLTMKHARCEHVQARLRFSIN

[3] = target: T2, Corticotropin-releasing factor receptor 2/Corticotropin-releasing factor-binding protein (Homo sapiens, UniProt P24387+Q13324); test: Dose Response confirmation of uHTS hits for small molecule antagonists of the CRF-binding protein and CRF-R2 receptor complex.; format: functional; details: read-out: IC50_Mean
T2 sequence (Q13324 whole entry): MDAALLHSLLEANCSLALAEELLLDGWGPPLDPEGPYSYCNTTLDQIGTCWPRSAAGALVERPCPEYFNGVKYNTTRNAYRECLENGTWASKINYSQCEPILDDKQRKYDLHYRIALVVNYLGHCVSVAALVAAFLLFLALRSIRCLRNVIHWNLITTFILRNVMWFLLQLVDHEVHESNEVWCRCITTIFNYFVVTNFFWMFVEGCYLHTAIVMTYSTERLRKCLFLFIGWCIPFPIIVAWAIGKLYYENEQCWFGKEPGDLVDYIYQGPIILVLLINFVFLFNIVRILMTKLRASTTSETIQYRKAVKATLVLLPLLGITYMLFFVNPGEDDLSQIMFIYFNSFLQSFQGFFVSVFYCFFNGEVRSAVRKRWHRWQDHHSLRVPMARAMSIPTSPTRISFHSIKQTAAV
T2 sequence (P24387 whole entry): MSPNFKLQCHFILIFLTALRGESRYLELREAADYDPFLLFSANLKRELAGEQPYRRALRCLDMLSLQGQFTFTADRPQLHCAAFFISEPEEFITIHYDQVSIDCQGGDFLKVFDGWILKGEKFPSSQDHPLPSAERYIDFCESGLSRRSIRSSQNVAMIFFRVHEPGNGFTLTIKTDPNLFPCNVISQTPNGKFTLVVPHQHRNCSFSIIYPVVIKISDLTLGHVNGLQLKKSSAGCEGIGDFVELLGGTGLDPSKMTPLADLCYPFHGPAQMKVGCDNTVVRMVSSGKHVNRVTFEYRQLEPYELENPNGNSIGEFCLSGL

[4] = target: T2, Corticotropin-releasing factor receptor 2/Corticotropin-releasing factor-binding protein; test: activators of CRF receptor 2 with binding protein – uHTS hits, confirmation (AID 602473); format: functional; details: read-out: EC50_Mean
[5] = target: Cytochrome P450 2C9 (Homo sapiens, UniProt P11712)
[6] = target: FAD-linked sulfhydryl oxidase ALR (Homo sapiens, UniProt P55789); test: inhibitors of human ALR sulfhydryl oxidase, dose response, biochemical, H2O2 detection, luminescence, cherry-pick (AID 493248)
[7] = test system: Vero; test: cells; format: functional; details: Chlorocebus sabaeus
[8] = cells; format: functional, cell-based
[9] = cells; format: functional, cell-based; remark: listed apart in the source
[10] = target: Heat shock protein HSP 90-alpha (Homo sapiens, UniProt P07900); format: functional, organism-based
[11] = target: Glyceraldehyde-3-phosphate dehydrogenase (Homo sapiens, UniProt P04406)
[12] = target: T3, RNA-binding protein pos-1 (Caenorhabditis elegans, UniProt G5EF15); test: inhibitors of POS-1/mex-3 RNA binding, dose response, biochemical, fluorescence polarization (AID 1964);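 also: purified POS-1 fused to maltose binding protein made in E. coli; potency of compounds blocking POS-1 binding to fluorescent RNA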
T3 sequence (G5EF15 whole entry): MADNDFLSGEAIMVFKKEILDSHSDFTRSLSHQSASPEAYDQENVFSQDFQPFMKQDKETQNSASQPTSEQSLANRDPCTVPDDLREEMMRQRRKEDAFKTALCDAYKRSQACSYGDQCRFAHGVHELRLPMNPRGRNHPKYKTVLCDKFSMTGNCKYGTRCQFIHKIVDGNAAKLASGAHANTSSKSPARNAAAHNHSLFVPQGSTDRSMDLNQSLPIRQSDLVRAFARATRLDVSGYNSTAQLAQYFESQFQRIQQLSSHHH

[13] = target: T4, Zinc finger protein mex-5 (Caenorhabditis elegans, UniProt Q9XUB2); test: MEX-5/TCR-2 RNA interaction inhibitors, dose response, biochemical, C. elegans, fluorescence polarization (AID 1960)
T4 sequence (Q9XUB2 whole entry): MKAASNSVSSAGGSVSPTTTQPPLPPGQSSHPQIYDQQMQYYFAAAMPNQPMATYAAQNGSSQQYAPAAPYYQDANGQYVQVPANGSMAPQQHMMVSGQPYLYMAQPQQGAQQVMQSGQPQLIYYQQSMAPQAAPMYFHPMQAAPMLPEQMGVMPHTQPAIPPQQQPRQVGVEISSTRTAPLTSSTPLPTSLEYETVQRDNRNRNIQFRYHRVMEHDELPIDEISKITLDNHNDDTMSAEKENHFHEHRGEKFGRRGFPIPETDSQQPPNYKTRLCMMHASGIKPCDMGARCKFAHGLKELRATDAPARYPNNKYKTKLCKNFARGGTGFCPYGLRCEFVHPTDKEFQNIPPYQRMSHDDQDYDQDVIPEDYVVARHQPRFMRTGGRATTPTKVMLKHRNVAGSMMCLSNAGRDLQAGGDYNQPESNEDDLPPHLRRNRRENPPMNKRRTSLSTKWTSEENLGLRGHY

[14] = cytotoxicity toward NIH3T3 fibroblasts, dose response, counter-screen, cell-based, ATP luminescence, mouse fibroblasts (AID 2010); format: functional;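 also: cells exposed to compound for about 90 hours before reading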
[15] = inhibitors of intracellular T. cruzi replication, confirmation, NIH3T3 host cells, beta-gal luminescence (AID 2044); format: functional, cell-based;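 also: intracellular parasites grown in NIH/3T3 mouse fibroblasts as host cells; luminescent beta-galactosidase reporter signal from transgenic T. cruzi replicating inside host cells; inhibitors lower the luminescence signal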
[16] = target: T5, Polyadenylate-binding protein 1 (Homo sapiens, UniProt P11940); test: PABP1 MLLE–PAM2 interaction inhibitors, dose response, miRNA deadenylation inhibitor project, biochemical, fluorescence polarization, Cy5-PAM2 peptide, secondary (AID 602260); format: functional; details: read-out: IC50_Mean
[17] = target: T5, Polyadenylate-binding protein 1; test: PABP1 MLLE–PAM2 binding inhibitor potency, dose response, biochemical, fluorescence polarization, FITC-PAM2 peptide (AID 602259); format: functional; details: read-out: IC50_Mean
[18] = target: Cytochrome P450 2C19 (Homo sapiens, UniProt P33261); test: Cytochrome panel assay with activity outcomes. Panel member name: p450-cyp2c19 Compounds with AC50 equal or less than 10 uM are considered active; format: functional; details: read-out: AC50
[19] = target: Cytochrome P450 2D6 (Homo sapiens, UniProt P10635);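 also: CYP2D6 member of a cytochrome P450 panel assay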
Sequence of Cytochrome P450 2D6 (P10635 whole entry): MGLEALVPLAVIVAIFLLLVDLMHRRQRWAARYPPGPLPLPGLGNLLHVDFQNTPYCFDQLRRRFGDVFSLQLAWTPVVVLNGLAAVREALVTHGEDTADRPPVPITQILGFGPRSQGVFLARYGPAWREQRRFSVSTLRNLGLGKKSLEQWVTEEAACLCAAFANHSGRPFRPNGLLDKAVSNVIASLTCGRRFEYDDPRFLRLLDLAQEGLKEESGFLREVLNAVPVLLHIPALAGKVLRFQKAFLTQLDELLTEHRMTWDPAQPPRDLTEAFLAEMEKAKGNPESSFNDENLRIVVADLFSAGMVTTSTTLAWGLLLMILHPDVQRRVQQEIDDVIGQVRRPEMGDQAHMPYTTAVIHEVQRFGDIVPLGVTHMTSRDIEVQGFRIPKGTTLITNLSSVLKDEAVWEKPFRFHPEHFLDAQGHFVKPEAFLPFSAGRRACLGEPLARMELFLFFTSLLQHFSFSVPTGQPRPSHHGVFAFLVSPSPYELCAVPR

Sequence of Large T antigen (P03070 whole entry): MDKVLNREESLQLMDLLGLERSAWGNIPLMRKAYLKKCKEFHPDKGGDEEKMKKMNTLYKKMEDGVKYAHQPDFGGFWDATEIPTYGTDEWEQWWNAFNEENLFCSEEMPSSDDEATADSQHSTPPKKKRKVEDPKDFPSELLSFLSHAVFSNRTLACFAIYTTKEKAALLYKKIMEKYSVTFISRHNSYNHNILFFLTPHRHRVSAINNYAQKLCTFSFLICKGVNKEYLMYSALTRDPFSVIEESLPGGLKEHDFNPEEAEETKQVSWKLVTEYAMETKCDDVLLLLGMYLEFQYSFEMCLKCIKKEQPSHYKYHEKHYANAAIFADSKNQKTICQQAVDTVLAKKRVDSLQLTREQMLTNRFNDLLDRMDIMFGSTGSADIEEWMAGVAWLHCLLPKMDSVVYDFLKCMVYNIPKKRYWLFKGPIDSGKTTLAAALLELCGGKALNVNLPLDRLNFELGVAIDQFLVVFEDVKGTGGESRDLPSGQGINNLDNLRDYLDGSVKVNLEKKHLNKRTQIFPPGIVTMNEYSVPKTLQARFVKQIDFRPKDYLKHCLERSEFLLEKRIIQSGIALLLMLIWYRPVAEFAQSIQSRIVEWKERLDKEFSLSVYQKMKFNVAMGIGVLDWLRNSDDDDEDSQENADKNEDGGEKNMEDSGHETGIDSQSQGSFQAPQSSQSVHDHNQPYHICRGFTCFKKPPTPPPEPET
Sequence of FAD-linked sulfhydryl oxidase ALR (P55789 whole entry): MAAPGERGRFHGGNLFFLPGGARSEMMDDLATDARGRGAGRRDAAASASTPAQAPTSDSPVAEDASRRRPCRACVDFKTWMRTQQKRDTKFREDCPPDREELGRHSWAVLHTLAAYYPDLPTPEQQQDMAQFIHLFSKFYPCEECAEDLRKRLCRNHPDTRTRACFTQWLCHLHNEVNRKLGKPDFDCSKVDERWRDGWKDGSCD
T5 sequence (P11940 whole entry): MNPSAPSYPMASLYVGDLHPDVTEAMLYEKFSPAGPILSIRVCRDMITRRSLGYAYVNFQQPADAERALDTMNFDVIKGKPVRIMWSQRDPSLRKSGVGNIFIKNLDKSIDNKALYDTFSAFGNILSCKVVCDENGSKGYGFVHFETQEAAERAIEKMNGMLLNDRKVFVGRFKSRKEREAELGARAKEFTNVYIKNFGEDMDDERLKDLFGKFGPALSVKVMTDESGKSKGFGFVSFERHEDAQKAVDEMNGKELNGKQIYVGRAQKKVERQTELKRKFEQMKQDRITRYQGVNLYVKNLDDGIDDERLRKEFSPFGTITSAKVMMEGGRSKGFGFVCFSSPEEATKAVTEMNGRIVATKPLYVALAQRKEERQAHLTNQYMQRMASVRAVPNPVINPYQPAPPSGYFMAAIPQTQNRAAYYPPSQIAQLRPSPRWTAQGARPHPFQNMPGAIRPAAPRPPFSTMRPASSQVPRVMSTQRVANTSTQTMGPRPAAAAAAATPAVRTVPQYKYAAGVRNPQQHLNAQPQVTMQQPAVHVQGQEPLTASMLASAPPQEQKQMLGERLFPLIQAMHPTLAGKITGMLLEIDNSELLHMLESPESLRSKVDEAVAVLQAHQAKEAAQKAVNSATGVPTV
Sequence of Cytochrome P450 2C9 (P11712 whole entry): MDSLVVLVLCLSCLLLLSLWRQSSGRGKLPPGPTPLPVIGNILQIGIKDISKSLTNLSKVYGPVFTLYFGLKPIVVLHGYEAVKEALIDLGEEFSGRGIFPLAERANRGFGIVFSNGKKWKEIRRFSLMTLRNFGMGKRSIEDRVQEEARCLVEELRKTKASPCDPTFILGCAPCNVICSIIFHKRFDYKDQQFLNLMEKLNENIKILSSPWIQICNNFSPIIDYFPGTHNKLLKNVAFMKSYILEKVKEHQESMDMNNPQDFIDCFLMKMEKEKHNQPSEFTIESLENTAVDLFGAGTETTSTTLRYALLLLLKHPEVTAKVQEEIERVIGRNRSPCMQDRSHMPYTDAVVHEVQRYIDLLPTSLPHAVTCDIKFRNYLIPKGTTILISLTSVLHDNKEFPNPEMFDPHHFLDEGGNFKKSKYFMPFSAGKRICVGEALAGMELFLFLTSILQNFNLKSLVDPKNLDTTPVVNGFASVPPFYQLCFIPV
Sequence of Cytochrome P450 2C19 (P33261 whole entry): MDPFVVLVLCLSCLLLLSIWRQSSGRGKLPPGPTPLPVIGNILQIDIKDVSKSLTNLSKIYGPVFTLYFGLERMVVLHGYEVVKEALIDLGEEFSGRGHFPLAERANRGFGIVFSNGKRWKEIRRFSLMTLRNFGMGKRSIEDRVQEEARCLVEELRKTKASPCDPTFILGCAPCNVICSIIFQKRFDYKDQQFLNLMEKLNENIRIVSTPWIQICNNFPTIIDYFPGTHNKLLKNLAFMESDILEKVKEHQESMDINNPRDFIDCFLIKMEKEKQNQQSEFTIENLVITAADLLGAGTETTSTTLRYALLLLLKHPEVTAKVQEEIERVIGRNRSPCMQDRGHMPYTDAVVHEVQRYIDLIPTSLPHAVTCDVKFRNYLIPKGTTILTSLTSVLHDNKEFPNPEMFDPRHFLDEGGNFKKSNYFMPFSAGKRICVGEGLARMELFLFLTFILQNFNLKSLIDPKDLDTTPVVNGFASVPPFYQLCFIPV
Sequence of Glyceraldehyde-3-phosphate dehydrogenase (P04406 whole entry, the tested form may be a part): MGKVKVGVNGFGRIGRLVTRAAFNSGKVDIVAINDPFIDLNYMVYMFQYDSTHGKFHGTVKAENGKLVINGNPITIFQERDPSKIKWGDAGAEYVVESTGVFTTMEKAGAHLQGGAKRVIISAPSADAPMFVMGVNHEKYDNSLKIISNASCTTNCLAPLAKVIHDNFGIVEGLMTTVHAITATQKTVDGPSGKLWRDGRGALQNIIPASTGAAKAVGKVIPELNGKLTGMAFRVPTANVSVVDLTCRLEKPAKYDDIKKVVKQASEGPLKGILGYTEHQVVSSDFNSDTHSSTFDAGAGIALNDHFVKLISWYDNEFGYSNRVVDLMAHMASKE

CCOC(=O)C1=C(O)/C(=C/c2cccc(OC)c2O)N=C1C
IC50 [1]: 16.4 µM (active)

CCC(C)N(C(=O)COC(=O)/C=C/c1ccc(O)c(OC)c1)C1CCS(=O)(=O)C1 (stereo unspecified)
IC50 [1]: 11.4 µM (active)

COc1ccccc1OCC(=O)NNC(=O)c1cnccn1
AC50 [2]: 17.8 µM (inconclusive) | IC50 [3]: > 47.1 µM (inactive) | EC50 [4]: > 53 µM (inactive) | AC50 [5]: inconclusive

COC(=O)CNc1c(-c2ccccc2)nc2ccc(Br)cn12
AC50 [6]: 1.08 µM (active)

COc1ccc([C@@]2(C(C)C)ON(c3ccccc3C(F)(F)F)C2=O)cc1
CC50 [7]: > 25 µM (active)

COc1ccc(OC)c2nc(O)c(CCNC(=O)COc3ccccc3)cc12
AC50 [5]: inconclusive

COc1cccc(OCc2cc(C(=O)N3CCN(c4ccccc4OC)CC3)no2)c1
EC50 [8]: 66.7 µM (active) | EC50 [9]: > 350 µM (not active)

COC(=O)[C@H](CCSC)NC(=O)C/C=C\[C@@H](C)CO
AC50 [5]: inconclusive

COc1ccc(N(C(=O)c2ccncc2)S(=O)(=O)c2ccc(Cl)cc2)cc1
AC50 [10]: 0.354 µM (active)

Cc1ccc(S(=O)(=O)Nc2ccc(O)c(C(=O)O)c2)c(C)c1
IC50 [11]: > 100 µM (not active)

Cc1ccc(C[S+]([O-])Cc2ccc(C(=O)N3CCN(c4ccccc4)CC3)o2)cc1 (stereo unspecified)
AC50 [6]: 5.92 µM (active) | EC50 [12]: > 300 µM (not active) | EC50 [13]: > 300 µM (not active) | EC50 [14]: 33.2 µM (active) | EC50 [15]: 7.61 µM (active)

O=S(=O)(/C=C/c1ccccc1)NC1CCCCCC1
AC50 [10]: 10.5 µM (active)

O=C(CC1CCCCC1)Nc1nc[nH]n1
IC50 [11]: > 10 µM (inconclusive)

NS(=O)(=O)c1ccc(-c2ccc(C=C3C(=O)NC(=S)NC3=O)o2)cc1
IC50 [1]: 10.5 µM (active)

O=C(O)C1CSC(c2coc3ccccc3c2=O)N1 (stereo unspecified)
AC50 [6]: 0.083 µM (active)

O=C(O)CN1C(=O)C2C3CC(C2C1=O)C1C(c2ccc(F)cc2)c2sc(O)nc2SC31 (stereo unspecified)
IC50 [16]: > 66 µM (inactive) | IC50 [17]: > 66 µM (inactive)

O=C(NCc1ccccc1)C(=O)c1cn(CC(=O)N2CCOCC2)c2ccccc12
EC50 [8]: > 350 µM (not active) | EC50 [9]: > 350 µM (not active)

Cc1ccc2cc3c(N)[nH]nc3nc2c1
IC50 [1]: 13.1 µM (active)

COc1cccc(C2=NOC(C(=O)Nc3ccc(OC)c(OC)c3)C2)c1 (stereo unspecified)
AC50 [18]: 25.1 µM (inconclusive) | AC50 [5]: inconclusive

Cc1ccc(-c2nc(C#N)c(NCCN3CCCCC3)o2)cc1
AC50 [6]: 4.4 µM (active)

Cn1c(=O)c2cc(S(=O)(=O)NCCC(=O)N3CC=C(c4ccccc4)CC3)ccc2n(C)c1=O
AC50 [2]: 31.6 µM (inconclusive) | AC50 [19]: 17.8 µM (inconclusive) | AC50 [18]: 25.1 µM (inconclusive) | AC50 [5]: inconclusive

c1ccc(-n2cnc3cc(NCc4ccccn4)ccc32)cc1
AC50 [6]: 1.17 µM (active)

CCNc1ncc2ncc(=O)n(C3CC3)c2n1
AC50 [5]: inconclusive

COc1ccc(C2(C)NC(=O)NC2=O)cc1OC (stereo unspecified)
EC50 [8]: 116 µM (active) | EC50 [9]: > 350 µM (not active)

NC(=S)c1cnn2c(-c3cccc(C(F)(F)F)c3)ccnc12
IC50 [16]: > 66 µM (inactive) | IC50 [17]: > 66 µM (inactive)

O=C(O)c1cscc1Cc1cccs1
AC50 [5]: inconclusive

O=C(O)c1ccccc1C(=O)Nc1ccc(-c2csc(-c3ccccc3)n2)cc1
AC50 [6]: 0.218 µM (active)

Cc1nnc(Nc2ccc(O)cc2)nc1O
IC50 [1]: 33 µM (active)

C=CCNC(=O)c1onc(CSc2cc(C)ccc2C)c1C(=O)O
AC50 [6]: 4.81 µM (active)

COc1ccc(C(=O)Nc2ccc(Cl)cn2)cc1Cl
AC50 [5]: inconclusive

CN1CCC2(CC1)N=C(c1ccc(F)cc1)C(=S)N2C(=O)c1ccc(C(C)(C)C)cc1
EC50 [8]: 73.9 µM (active) | EC50 [9]: > 350 µM (not active)

C[C@@H]1CC[C@H](Cc2ccc(-n3cccc3)cc2)N1C(=O)OC(C)(C)C
CC50 [7]: > 25 µM (active)

OCCOCCn1c(C2CCCN2c2nc(-c3ccc(F)cc3)cs2)nc2cc(C(F)(F)F)ccc21 (stereo unspecified)
AC50 [10]: 7.57 µM (active)

COc1ccc(Nc2nc(N/N=C/c3ccc(N(C)C)cc3)nc(C)c2[N+](=O)[O-])cc1
EC50 [8]: > 350 µM (not active) | EC50 [9]: > 350 µM (not active)

C/C(=N/NS(=O)(=O)c1cccc([N+](=O)[O-])c1)c1c[nH]c2ccccc12
IC50 [1]: 17 µM (active)

COc1ccc(/C=N/NC(=O)c2ccccc2O)cc1CSc1ccccn1
EC50 [8]: > 350 µM (not active) | EC50 [9]: > 350 µM (not active)

Cc1cccc(N2C(=O)C=CC2=O)c1
AC50 [10]: 1.63 µM (active)

Source: ChEMBL document CHEMBL1201862, “PubChem BioAssay data set” (2004)
